Like-named read-outs stand apart in the source and are kept apart here.
Experiments:
PAK1 [1] = target: T1, PAK1 (Homo sapiens, UniProt Q13153); assay: Z'-LYTE FRET kinase inhibition assay; assay type: biochemical; parameters: human recombinant PAK1 (kinase domain); purchased Invitrogen PV2830; conditions: for PAK1 inhibitory activity and selectivity of conjugate: vs PAK2 and PAK4
Procedure: The activity/inhibition of human recombinant PAK1 (kinase domain) or PAK2 (full length) was determined by measuring the phosphorylation of a FRET peptide substrate (Ser/Thr19) labeled with Coumarin and Fluorescein using Z′-LYTE™ assay (Invitrogen). The 10 μL assay mixtures contained 50 mM HEPES (pH 7.5), 0.01% Brij-35, 10 mM MgCl2, 1 mM EGTA, 2 μM FRET peptide substrate, and PAK enzyme (20 pM PAK1; 50 pM PAK2). Incubations were carried out at 22° C. in black polypropylene 384-well plates (Corning Costar). […] Following the 60-minute incubation, the assay mixtures were quenched by the addition of 5 μL of Z′-LYTE™ development reagent, and 1 hour later the emissions of Coumarin (445 nm) and Fluorescein (520 nm) were determined after excitation at 400 nm using an Envision plate reader (Perkin Elmer).
Target sequence in this assay (Q13153 270-521 limits assumed): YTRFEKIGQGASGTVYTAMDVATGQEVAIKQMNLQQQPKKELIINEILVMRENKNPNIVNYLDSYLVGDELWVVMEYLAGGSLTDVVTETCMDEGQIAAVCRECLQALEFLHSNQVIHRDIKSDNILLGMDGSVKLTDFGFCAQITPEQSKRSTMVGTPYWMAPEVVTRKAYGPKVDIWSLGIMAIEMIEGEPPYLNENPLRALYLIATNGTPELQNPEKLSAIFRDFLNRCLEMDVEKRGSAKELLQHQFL

PAK2 [2] = target: T2, PAK2 (Homo sapiens, UniProt Q13177); assay: Z'-LYTE FRET kinase inhibition assay; assay type: biochemical; parameters: PAK2 (full length); purchased Invitrogen PV4565
T2 sequence (Q13177 whole entry, the tested form may be a part): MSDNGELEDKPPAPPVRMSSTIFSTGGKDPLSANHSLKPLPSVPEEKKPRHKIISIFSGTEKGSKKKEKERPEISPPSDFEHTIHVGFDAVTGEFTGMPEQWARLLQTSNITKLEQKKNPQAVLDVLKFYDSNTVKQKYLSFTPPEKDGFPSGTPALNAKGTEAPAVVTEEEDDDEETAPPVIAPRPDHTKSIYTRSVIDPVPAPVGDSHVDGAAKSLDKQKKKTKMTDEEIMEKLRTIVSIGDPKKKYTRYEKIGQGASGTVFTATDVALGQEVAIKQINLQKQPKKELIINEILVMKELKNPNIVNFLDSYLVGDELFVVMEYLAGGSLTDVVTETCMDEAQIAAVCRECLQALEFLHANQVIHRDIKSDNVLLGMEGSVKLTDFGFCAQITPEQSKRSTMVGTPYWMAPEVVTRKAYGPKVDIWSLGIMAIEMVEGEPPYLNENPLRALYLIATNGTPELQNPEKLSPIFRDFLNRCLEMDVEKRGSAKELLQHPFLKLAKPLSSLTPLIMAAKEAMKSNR
Procedure: The activity/inhibition of human recombinant PAK1 (kinase domain) or PAK2 (full length) was determined by measuring the phosphorylation of a FRET peptide substrate (Ser/Thr19) labeled with Coumarin and Fluorescein using Z′-LYTE™ assay (Invitrogen). The 10 μL assay mixtures contained 50 mM HEPES (pH 7.5), 0.01% Brij-35, 10 mM MgCl2, 1 mM EGTA, 2 μM FRET peptide substrate, and PAK enzyme (20 pM PAK1; 50 pM PAK2). Incubations were carried out at 22° C. in black polypropylene 384-well plates (Corning Costar). Prior to the assay, enzyme, FRET peptide substrate and serially diluted test compounds were preincubated together in assay buffer (7.5 μL) for 10 minutes, and the assay was initiated by the addition of 2.5 μL assay buffer containing 4×ATP (160 μM PAK1; 480 μM PAK2). Following the 60-minute incubation, the assay mixtures were quenched by the addition of 5 μL of Z′-LYTE™ development reagent, and 1 hour later the emissions of Coumarin (445 nm) and Fluorescein (520 nm) were determined after excitation at 400 nm using an Envision plate reader (Perkin Elmer). […].

PAK4 = PAK4 (Homo sapiens, UniProt O96013); assay: Z'-LYTE FRET kinase inhibition assay; assay type: biochemical; parameters: purchased Invitrogen
PAK4, sequence (O96013 whole entry): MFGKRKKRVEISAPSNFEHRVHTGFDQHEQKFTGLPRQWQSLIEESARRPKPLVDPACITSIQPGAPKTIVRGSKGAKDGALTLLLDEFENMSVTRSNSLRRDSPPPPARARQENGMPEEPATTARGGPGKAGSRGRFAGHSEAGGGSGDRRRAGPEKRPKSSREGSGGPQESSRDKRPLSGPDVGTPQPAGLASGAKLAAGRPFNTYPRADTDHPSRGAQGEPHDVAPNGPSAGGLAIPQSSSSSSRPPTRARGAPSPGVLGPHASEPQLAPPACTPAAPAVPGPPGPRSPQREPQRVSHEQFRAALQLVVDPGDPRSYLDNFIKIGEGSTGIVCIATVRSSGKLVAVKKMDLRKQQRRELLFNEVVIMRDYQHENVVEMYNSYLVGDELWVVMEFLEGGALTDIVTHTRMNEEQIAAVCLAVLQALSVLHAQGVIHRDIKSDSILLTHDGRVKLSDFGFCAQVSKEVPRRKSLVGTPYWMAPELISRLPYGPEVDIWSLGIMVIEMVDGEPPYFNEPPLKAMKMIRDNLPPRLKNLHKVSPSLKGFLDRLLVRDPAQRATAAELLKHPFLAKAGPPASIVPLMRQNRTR
Text: […]. […] […].

PAK2 [3] = target: T2, PAK2; assay: PAK2 degradation in MCF7 and OVCAR3 cells, immunoblot; assay type: cell-based; parameters: due to their high expression of both PAK1 and PAK2; endogenous in cells; host or cells: MCF7, OVCAR3
Procedure: […]. Cells were incubated overnight then treated with various concentrations of Pak degraders alone or together with bortezomib or lenalidomide for 24 hours. Protein lysates were harvested at the times specified.
Cells were washed once in PBS and lysed in RIPA buffer (50 mM Tris-HCl, 150 mM NaCl, 0.25% (w/v) sodium deoxycholate, 1% (w/v) NP-40, pH 7.5) containing protease inhibitor cocktail (Roche) and phosphatase inhibitor cocktail (Roche) for 30 minutes on ice. Cell lysates were obtained by centrifugation at 13,500 rpm for 15 minutes at 4° C. BCA protein assay (Thermo Scientific) was used to determine protein concentration then equal amounts of total proteins were separated by SDS-PAGE (Bio-Rad) and transferred to PVDF membrane (Thermo Scientific) at 100V for 2 hours. Membranes were blocked in 5% (w/v) non-fat dry milk in tris-buffered saline with 0.1% Tween-20 (TBS-T) for 1 hour and incubated with primary antibody at 4° C. for overnight. […]
After verifying that BJG-05-039 retained specificity for PAK1, its degradation activity in cells was characterized. First, the PAK1 degrader was evaluated in the breast cancer cell line MCF7 and the ovarian cancer cell line OVCAR3 due to their high expression of both PAK1 and PAK2 and their known dependence on PAK1 (Prudnikova, et al. (2016) Oncogene 35:2178-2185; Shrestha, et al. (2012) Oncogene 31:3397-3408). […]

MCF7 cells = assay: Cell proliferation, MTT assay; assay type: cell-based; conditions: for Effect on cell proliferation: MCF7 cells; for EC50: Homo sapiens, MCF7, read-out: EC50, anti-proliferative, MCF7 cells
Procedure: (§1) Cell proliferation was assessed by MTT assay.
(§2) Cell viability was measured by MTT assay and the half maximal inhibitory concentration (IC50) was calculated using GraphPad Prism. Triplicates were performed for each sample and medium alone was used as a blank.
(§3) The anti-proliferative effects of PAK1 degradation and inhibition were evaluated.

OVCAR3 cells = assay: Cell proliferation, MTT assay; assay type: cell-based; conditions: for Effect on cell proliferation: OVCAR3 cells; for EC50: Homo sapiens, OVCAR-3, read-out: EC50, anti-proliferative, OVCAR3 cells
Procedure: […]. Cell proliferation was assessed by MTT assay. […].
Cells were plated at 2×10^3 cells per well in 96-well plates overnight and treated with various concentrations of Pak degraders for 72 hours. Cell viability was measured by MTT assay and the half maximal inhibitory concentration (IC50) was calculated using GraphPad Prism. Triplicates were performed for each sample and medium alone was used as a blank.
The anti-proliferative effects of PAK1 degradation and inhibition were evaluated. […]. […] […]. […] […].

PAK1 [4] = target: T1, PAK1; assay: PAK1 degradation in MCF7 and OVCAR3 cells, immunoblot; assay type: cell-based; parameters: endogenous in cells; host or cells: MCF7, OVCAR3; conditions: MCF7 and OVCAR3 cells
Procedure: Protein lysates were harvested at the times specified.
Cell lysates were obtained by centrifugation at 13,500 rpm for 15 minutes at 4° C. BCA protein assay (Thermo Scientific) was used to determine protein concentration then equal amounts of total proteins were separated by SDS-PAGE (Bio-Rad) and transferred to PVDF membrane (Thermo Scientific) at 100V for 2 hours. Membranes were blocked in 5% (w/v) non-fat dry milk in tris-buffered saline with 0.1% Tween-20 (TBS-T) for 1 hour and incubated with primary antibody at 4° C. for overnight. Membranes were washed with TBS-T on the next day and incubated with HRP-conjugated secondary antibodies (Millipore) at room temperature for 1 hour and exposed to films after washing.
Target sequence in this assay (Q13153 whole entry, the tested form may be a part): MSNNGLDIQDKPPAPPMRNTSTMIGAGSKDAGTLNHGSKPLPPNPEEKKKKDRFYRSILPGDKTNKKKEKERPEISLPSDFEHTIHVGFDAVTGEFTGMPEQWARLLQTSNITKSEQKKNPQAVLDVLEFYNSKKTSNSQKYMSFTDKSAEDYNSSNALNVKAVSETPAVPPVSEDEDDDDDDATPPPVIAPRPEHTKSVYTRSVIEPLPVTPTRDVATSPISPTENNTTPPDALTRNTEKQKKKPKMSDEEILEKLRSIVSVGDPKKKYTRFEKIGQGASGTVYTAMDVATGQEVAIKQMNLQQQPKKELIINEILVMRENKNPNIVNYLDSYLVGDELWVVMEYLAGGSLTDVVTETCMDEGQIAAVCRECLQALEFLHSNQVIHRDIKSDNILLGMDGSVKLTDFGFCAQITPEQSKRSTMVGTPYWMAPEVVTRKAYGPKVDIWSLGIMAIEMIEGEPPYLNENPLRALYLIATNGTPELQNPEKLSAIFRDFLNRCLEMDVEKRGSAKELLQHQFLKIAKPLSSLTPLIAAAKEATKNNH

[5] = cited from earlier work
OMM1 cells = assay: Cell proliferation, MTT assay; assay type: cell-based; conditions: OMM-1, read-out: EC50, anti-proliferative
Procedure: as §1, §2, §3

Hey A8 cells = assay: Cell proliferation, MTT assay; assay type: cell-based; conditions: HEY A8, read-out: EC50, anti-proliferative
Procedure: as §1, §2, §3

[6] = cited from earlier work; remark: listed apart in the source

SMILES | IC50 (PAK1 [1]) [µM] | IC50 (PAK2 [2]) [µM] | IC50 (PAK4) [µM] | other results
O=C1CCC(N2C(=O)c3cccc(NCCCCCCC(=O)N4CC[C@H](NC5=Nc6cc(F)ccc6N(CC(F)F)c6ccc(Cl)cc65)C4)c3C2=O)C(=O)N1 (some centres unmarked) [BJG-05-017] | > 1.11 | > 3.33 | > 1 | 
O=C(COc1cccc2c1C(=O)N(C1CCC(=O)NC1=O)C2=O)NCCCCCCC(=O)N1CC[C@H](NC2=Nc3cc(F)ccc3N(CC(F)F)c3ccc(Cl)cc32)C1 (some centres unmarked) [BJG-05-018] | > 3.33 | > 10 | > 10 | 
O=C1CCC(N2C(=O)c3cccc(NCCCC(=O)N4CC[C@H](NC5=Nc6cc(F)ccc6N(CC(F)F)c6ccc(Cl)cc65)C4)c3C2=O)C(=O)N1 (some centres unmarked) [BJG-05-019] | 6.3 | > 10 | > 10 | 
Cc1ncsc1-c1ccc([C@H](C)NC(=O)C2C[C@@H](O)CN2C(=O)[C@@H](NC(=O)CCCCCCCC(=O)N2CC[C@H](NC3=Nc4cc(F)ccc4N(CC(F)F)c4ccc(Cl)cc43)C2)C(C)(C)C)cc1 (some centres unmarked) [BJG-05-020] | > 10 | > 10 | > 10 | 
O=C1CCC(N2C(=O)c3cccc(NCCOCCOCCNC(=O)N4CC[C@H](NC5=Nc6cc(F)ccc6N(CC(F)F)c6ccc(Cl)cc65)C4)c3C2=O)C(=O)N1 (some centres unmarked) [BJG-05-022] | 1.49 | 6.75 | 3.86 | 
O=C1CCC(N2C(=O)c3cccc(NCCCCCNC(=O)N4CC[C@H](NC5=Nc6cc(F)ccc6N(CC(F)F)c6ccc(Cl)cc65)C4)c3C2=O)C(=O)N1 (some centres unmarked) [BJG-05-027] | 0.594 | > 10 | > 10 | PAK1 inhibitory activity and selectivity of conjugate (PAK1 [1]): retained PAK1 inhibitory activity and selectivity
CN1C(=O)CCC(N2C(=O)c3cccc(NCCCCCCCCNC(=O)N4CC[C@H](NC5=Nc6cc(F)ccc6N(CC(F)F)c6ccc(Cl)cc65)C4)c3C2=O)C1=O (stereo partly drawn) [BJG-05-098, (3S)-3-((2-Chloro-5-(2,2-difluoroethyl)-8-fluoro-5H-dibenzo[b,e][1,4]diazepin-11-yl)amino)-N-(8-((2-(J-methyl-2,6-dioxopiperidin-3-yl)-1,3-dioxoisoindolin-4-yl)amino)octyl)pyrrolidine-1-carboxamide] |  |  |  | PAK2 degradation (PAK2 [3]): did not induce degradation of PAK1 or PAK2; Effect on cell proliferation (MCF7 cells): did not affect cell proliferation; Effect on cell proliferation (OVCAR3 cells): did not affect cell proliferation; PAK1 degradation (PAK1 [4]): PAK1 degradation was not observed
CC(C)NC(=O)N1CC[C@H](NC2=Nc3cc(F)ccc3N(CC(F)F)c3ccc(Cl)cc32)C1 [NVS-PAK1-1, reference compound] |  |  | > 10 | In vivo half-life [5]: short in vivo half-life; EC50 (MCF7 cells; first statement of b311): 11.9 µM; EC50 (MCF7 cells; second listing of b311): 11.8 µM; EC50 (OMM1 cells): 12 µM; EC50 (Hey A8 cells): 33.6 µM; EC50 (OVCAR3 cells; first statement of b311): 3.68 µM; EC50 (OVCAR3 cells; second listing of b311): 8.9 µM; Half-life in rat liver microsomes [6]: short half-life
Nc1cccc2c1CN(C1CCC(=O)NC1=O)C2=O (centres unmarked) [lenalidomide, reference compound] |  |  |  | Effect on cell proliferation (MCF7 cells): lacked significant antiproliferative effects; Effect on cell proliferation (OVCAR3 cells): lacked significant antiproliferative effects

Continued by falling IC50 (PAK1 [1]), values first:

IC50 (PAK1 [1]) [µM] | IC50 (PAK2 [2]) [µM] | IC50 (PAK4) [µM] | SMILES | other results
0.432 | 0.724 | 0.152 | O=C1CCC(N2C(=O)c3cccc(NCCOCCOCCC(=O)N4CC[C@H](NC5=Nc6cc(F)ccc6N(CC(F)F)c6ccc(Cl)cc65)C4)c3C2=O)C(=O)N1 (some centres unmarked) [BJG-05-014] | PAK1 inhibitory activity and selectivity of conjugate (PAK1 [1]): retained PAK1 inhibitory activity and selectivity
0.103 |  |  | Cc1ccc(CO)cc1N(Cc1ccccc1C#N)c1nc(Nc2ccc(N3CCN(C(=O)CCOCCOCCNc4cccc5c4C(=O)N(C4CCC(=O)NC4=O)C5=O)CC3)c(S(C)(=O)=O)c2)ncc1F (centres unmarked) [BJG-05-094, 2-(((2-((4-(4-(3-(2-(2-((2-(2,6-Dioxopiperidin-3-yl)-1,3-dioxoisoindolin-4-yl)amino)ethoxy)ethoxy)propanoyl)piperazin-1-yl)-3-(methylsulfonyl)phenyl)amino)-5-fluoropyrimidin-4-yl)(5-(hydroxymethyl)-2-methylphenyl)amino)methyl)benzonitrile] | 
0.0366 |  |  | Cc1ccc(CO)cc1N(Cc1ccccc1C#N)c1nc(Nc2ccc(N3CCN(CCOCCOCCOCCOCCNc4cccc5c4C(=O)N(C4CCC(=O)NC4=O)C5=O)CC3)c(S(C)(=O)=O)c2)ncc1F (centres unmarked) [BJG-05-095, 2-(((2-((4-(4-(14-((2-(2,6-Dioxopiperidin-3-yl)-1,3-dioxoisoindolin-4-yl)amino)-3,6,9,12-tetraoxatetradecyl)piperazin-1-yl)-3-(methylsulfonyl)phenyl)amino)-5-fluoropyrimidin-4-yl)(5-(hydroxymethyl)-2-methylphenyl)amino)methyl)benzonitrile] | 
0.0325 |  |  | Cc1ccc(CO)cc1N(Cc1ccccc1C#N)c1nc(Nc2ccc(N3CCN(CCOCCOCCNc4cccc5c4C(=O)N(C4CCC(=O)NC4=O)C5=O)CC3)c(S(C)(=O)=O)c2)ncc1F (centres unmarked) [BJG-05-093, 2-(((2-((4-(4-(2-(2-(2-((2-(2,6-Dioxopiperidin-3-yl)-1,3-dioxoisoindolin-4-yl)amino)ethoxy)ethoxy)ethyl)piperazin-1-yl)-3-(methylsulfonyl)phenyl)amino)-5-fluoropyrimidin-4-yl)(5-(hydroxymethyl)-2-methylphenyl)amino)methyl)benzonitrile] | 
